Where only a bound is given, the exact number is not on record here.

T1 sequence (Q14831 35-922 isoform Q14831-2 limits assumed): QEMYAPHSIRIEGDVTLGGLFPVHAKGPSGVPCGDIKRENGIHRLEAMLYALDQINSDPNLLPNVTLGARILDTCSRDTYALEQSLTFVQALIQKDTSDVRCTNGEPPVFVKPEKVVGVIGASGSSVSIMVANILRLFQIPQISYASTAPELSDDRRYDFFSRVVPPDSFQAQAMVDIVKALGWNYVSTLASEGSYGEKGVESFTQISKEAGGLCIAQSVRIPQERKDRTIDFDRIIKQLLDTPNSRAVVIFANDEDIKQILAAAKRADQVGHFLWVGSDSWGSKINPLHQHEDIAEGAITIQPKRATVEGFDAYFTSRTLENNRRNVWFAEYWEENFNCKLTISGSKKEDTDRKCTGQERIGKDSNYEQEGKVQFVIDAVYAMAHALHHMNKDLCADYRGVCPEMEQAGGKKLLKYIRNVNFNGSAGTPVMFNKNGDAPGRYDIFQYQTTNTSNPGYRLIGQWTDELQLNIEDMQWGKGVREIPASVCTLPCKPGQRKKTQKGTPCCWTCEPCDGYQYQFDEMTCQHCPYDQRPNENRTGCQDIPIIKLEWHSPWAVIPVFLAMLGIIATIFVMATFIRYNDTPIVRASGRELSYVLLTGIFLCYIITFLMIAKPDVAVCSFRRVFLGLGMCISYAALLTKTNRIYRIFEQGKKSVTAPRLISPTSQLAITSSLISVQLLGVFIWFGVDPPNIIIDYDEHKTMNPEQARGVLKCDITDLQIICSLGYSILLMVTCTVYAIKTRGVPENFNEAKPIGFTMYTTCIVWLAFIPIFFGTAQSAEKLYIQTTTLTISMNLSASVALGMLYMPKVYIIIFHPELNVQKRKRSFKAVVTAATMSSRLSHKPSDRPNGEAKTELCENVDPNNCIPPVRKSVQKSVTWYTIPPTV

This assay addresses T1, human mGlu7 (Homo sapiens, UniProt Q14831).
T1 construct: expressed in transfected cells
As to the kind of experiment: mGlu7 assay on HEK-expressing human mGlu7: fluorescent cell-based Ca2+ mobilization (FLIPR384), inhibition of EC80 L-AP4 response. Particulars: HEK-293 cells expressing hmGlu7, EC80 L-AP4 stimulation; mean of at least three independent experiments in duplicate; read-out: Ca^2+ Flux (mean IC50). An excerpt: mGlu7 Assay on HEK-Expressing Human mGlu7
The cDNA encoding the human metabotropic glutamate 7 receptor (hmGlu7), (accession number NM_181874.2, NCBI Nucleotide database browser), was subcloned into an expression vector containing also the hygromycin resistance gene. In parallel, the cDNA encoding a G protein allowing redirection of the activation signal to intracellular calcium flux was subcloned into a different expression vector containing also the Puromycin resistance gene. Transfection of both these vectors into HEK293 cells with PolyFect reagent (Qiagen) according to supplier's protocol, and hygromycin and puromycin treatment allowed selection of antibiotic resistant cells which had integrated stably one or more copies of the plasmids. Positive cellular clones expressing hmGlu7 were identified in a functional assay measuring changes in calcium fluxes in response to glutamate and L-AP4 or known mGlu7 orthosteric antagonists.
HEK-293 cells expressing hmGlu7 were maintained in media containing DMEM, Fetal Bovine Serum (10%), Glutamax™ (2 mM), penicillin (100 units/mL), streptomycin (100 μg/mL), geneticin (100 μg/mL) and hygromycin-B (40 μg/mL) and puromycin (1 μg/mL) at 37° C. with 5% CO2 in a humidified atmosphere.
Fluorescent Cell Based- Ca^+ Mobilization Assay Human mGlu7 HEK-293 cells were plated out 24 hours prior to a fluorescent cell-based calcium mobilization assay using FLIPR^384 assay (Molecular Device, Sunnyvale, CA, USA) in black-walled, clear-bottomed, poly-L-ornithine-coated 384-well plates at a density of 25,000 cells/well in a glutamine/glutamate free DMEM medium containing fetal bovine serum (10%), penicillin (100 units/mL), streptomycin (100 μg/mL) and doxycyline (1 μg/ml) at 37° C. with 5% CO2 in a humidified atmosphere.
On the day of the assay, the medium was aspirated and the cells were loaded with a 3 μM solution of Fluo4-AM (LuBioScience, Lucerne, Switzerland) in 0.03% pluronic acid. After 1 hour at 37° C./5% CO2, the non incorporated dye was removed by washing cell plate with the assay buffer. All assays were performed in a pH 7.4 buffered-solution containing 20 mM HEPES, 143 mM NaCl, 6 mM KCl, 1 mM MgSO4, 1 mM CaCl2, 0.125 mM sulfinpyrazone and 0.1% glucose.
After 10 s of basal fluorescence recording, various concentrations of the compounds of the invention were added to the cells. Changes in fluorescence levels were first monitored for 180 s in order to detect any agonist activity of the compounds. Then the cells were stimulated by an EC80 L-AP4 concentration for an additional 110 s in order to measure inhibiting activities of the compounds of the invention. EC80 L-AP4 concentration is the concentration giving 80% of the maximal glutamate response.
The concentration-response curves of L-AP4 or representative compounds of the present invention were generated using the Prism GraphPad software (Graph Pad Inc, San Diego, USA). The curves were fitted to a four-parameter logistic equation: […]
allowing determination of IC50 values.
The Table 3 below represents the mean IC50 obtained from at least three independent experiments of selected molecules performed in duplicate.
In general terms: Calcium assays in cells follow changes in intracellular calcium, usually with a dye or a luminescent sensor.
Turning to `CCn1ncc2cc(-c3ccc(C)cc3C)ccc2c1=O` [1-1, 6-(2,4-Dimethylphenyl)-2-ethylphthalazin-1(2H)-one], the IC50 lay in the range of 100 to 1000 nM.
Next, `CCn1ncc2cc(-c3c(C)cc(C)cc3C)ccc2c1=O` [1-2]: 100 to 1000 nM.
Take `CCn1ncc2cc(-c3cccc(OC)c3)ccc2c1=O` [1-3]: the IC50 lay in the range of 100 to 1000 nM.
Next, `Cc1ccc(-c2ccc3c(=O)n(-c4ccccc4F)ncc3c2)c(C)c1` [1-4, 6-(2,4-Dimethylphenyl)-2-(2-fluorophenyl)phthalazin-1(2H)-one]: 100 to 1000 nM; `Cc1ccc(-c2ccc3c(=O)n(-c4ccccc4Cl)ncc3c2)c(C)c1` [1-5, 2-(2-Chlorophenyl)-6-(2,4-dimethylphenyl)phthalazin-1(2H)-one]: 100 to 1000 nM.
With `CCn1ncc2cc(-c3cccc(N(C)C)c3)ccc2c1=O` [1-6], the 50% inhibitory concentration (IC50) was in the range of 100 to 1000 nM.
Take `CCOc1cccc(-c2ccc3c(=O)n(CC)ncc3c2)c1` [1-7]: the IC50 fell in the range of 100 to 1000 nM.
On to `Cc1ccc(-c2ccc3c(=O)n(-c4ccc(S(C)(=O)=O)cc4)ncc3c2)c(C)c1` [1-8, 6-(2,4-Dimethylphenyl)-2-(4-(methylsulfonyl)phenyl)phthalazin-1(2H)-one], for which the IC50 was 100 to 1000 nM.
Take `Cc1ccc(-c2ccc3c(=O)n(-c4ccccn4)ncc3c2)c(C)c1` [1-10]: the IC50 is less than 100 nM.
Turning to `CCn1ncc2cc(-c3cccc(N4CCC4)c3)ccc2c1=O` [1-11, 6-(3-(Azetidin-1-yl)phenyl)-2-ethylphthalazin-1(2H)-one], the half-maximal inhibitory concentration (IC50) is less than 100 nM.
Take `CC(=O)c1ccc(-n2ncc3cc(-c4ccc(C)cc4C)ccc3c2=O)cc1` [1-12]: the IC50 fell in the range of 100 to 1000 nM.
With `CCn1ncc2cc(-c3cccc(N4CCCC4)c3)ccc2c1=O` [1-13, 2-Ethyl-6-(3-(pyrrolidin-1-yl)phenyl)phthalazin-1(2H)-one], the IC50 lay in the range of 1000 to 10000 nM.
Turning to `Cc1ccc(-c2ccc3c(=O)n(-c4ccc(C(C)O)cc4)ncc3c2)c(C)c1` (stereo not shown) [1-14, 6-(2,4-Dimethylphenyl)-2-(4-(1-hydroxyethyl)phenyl)phthalazin-1(2H)-one], the IC50 was in the range of 100 to 1000 nM.
Next, `COc1ccc(-c2ccc3c(=O)n(-c4ccccn4)ncc3c2)cc1` [1-17]: 100 to 1000 nM; `Cc1ccc(-c2ccc3c(=O)n(-c4ccncc4)ncc3c2)c(C)c1` [1-18]: 100 to 1000 nM; `COc1ccccc1-n1ncc2cc(-c3cccc(N4CCC4)c3)ccc2c1=O` [1-19]: 100 to 1000 nM.
Take `O=c1c2ccc(-c3cccc(N4CCC4)c3)cc2cnn1Cc1ccccc1` [1-20]: the IC50 was in the range of 100 to 1000 nM.
As to `O=c1c2ccc(-c3cccc(N4CCC4)c3)cc2cnn1-c1ccc(F)cn1` [1-24, 6-(3-(Azetidin-1-yl)phenyl)-2-(5-fluoropyridin-2-yl)phthalazin-1(2H)-one], the IC50 is 100 to 1000 nM.
For `COc1cccc(-c2ccc3c(=O)n(-c4ncccc4F)ncc3c2)c1` [1-29], the IC50 lay within 100 to 1000 nM.
Turning to `COc1cccc(-c2ccc3c(=O)n(-c4cc(C)ccn4)ncc3c2)c1` [1-30], the IC50 is 100 to 1000 nM.
For `COc1cccc(-c2ccc3c(=O)n(-c4ncccn4)ncc3c2)c1` [1-31], the IC50 lay within 100 to 1000 nM.
Turning to `COc1cccc(-c2ccc3c(=O)n(-c4cccc(C)n4)ncc3c2)c1` [1-32], the IC50 was in the range of 100 to 1000 nM.
In the case of `COc1cccc(-c2ccc3c(=O)n(-c4ccccn4)ncc3c2)c1Cl` [1-33] it was less than 100 nM; in that of `O=c1c2ccc(-c3cccc(OC4CC4)c3Cl)cc2cnn1-c1ccccn1` [1-34], less than 100 nM.
`COc1cccc(-c2ccc3c(=O)n(-c4ccccn4)ncc3c2)c1C` [1-35]: the concentration for half-maximal inhibition (IC50) was less than 100 nM.
`Cc1c(OC2CC2)cccc1-c1ccc2c(=O)n(-c3ccccn3)ncc2c1` [1-36]: the IC50 is less than 100 nM.
On to `CN1CCc2c(-c3ccc4c(=O)n(-c5ccccn5)ncc4c3)cccc21` [1-37], for which the IC50 was less than 100 nM.
`O=c1c2ccc(-c3cccc(OC(F)F)c3)cc2cnn1-c1ccccn1` [1-38]: the IC50 is less than 100 nM.
Next, `CC(F)(F)c1cccc(-c2ccc3c(=O)n(-c4ccccn4)ncc3c2)c1` [1-39]: 100 to 1000 nM; `COc1cccc(-c2ccc3c(=O)n(-c4ncccn4)ncc3c2)c1Cl` [1-40]: less than 100 nM; `O=c1c2ccc(-c3cccc(OC4CC4)c3Cl)cc2cnn1-c1ncccn1` [1-41]: 100 to 1000 nM.
Next, `COc1cccc(-c2ccc3c(=O)n(-c4ncccn4)ncc3c2)c1C` [1-42]: less than 100 nM.
In the case of `Cc1c(OC2CC2)cccc1-c1ccc2c(=O)n(-c3ncccn3)ncc2c1` [1-43] it was 100 to 1000 nM.
For the compound `CN1CCc2c(-c3ccc4c(=O)n(-c5ncccn5)ncc4c3)cccc21` [1-44], the IC50 is less than 100 nM.
On to `O=c1c2ccc(-c3cccc(N4CCC4)c3)cc2cnn1-c1ccccn1` [1-45], for which the IC50 was less than 100 nM.
In the case of `O=c1c2ccc(-c3cccc(N4CCC4)c3)cc2cnn1-c1ncccn1` [1-46] it was less than 100 nM; in that of `O=c1c2ccc(-c3cccc4c3ccn4C3CC3)cc2cnn1-c1ccccn1` [1-47], 1000 to 10000 nM; in that of `O=c1c2ccc(-c3cccc4c3ccn4C3CC3)cc2cnn1-c1ncccn1` [1-48], 100 to 1000 nM.
Take `O=c1c2ccc(-c3cc(F)cc(N4CCC4)c3)cc2cnn1-c1ccccn1` [1-49]: the IC50 lay in the range of 100 to 1000 nM.
For `O=c1c2ccc(-c3nccc(N4CCC4)n3)cc2cnn1-c1ccccn1` [1-50], the IC50 lay in the range of 1000 to 10000 nM.
For the compound `O=c1c2ccc(-c3ccc(F)c(N4CCC4)c3)cc2cnn1-c1ccccn1` [1-51], the IC50 lay in the range of 1000 to 10000 nM.
For the compound `O=c1c2ccc(-c3cc(N4CCC4)ccc3F)cc2cnn1-c1ccccn1` [1-52], the IC50 was less than 100 nM.
Regarding `O=c1c2ccc(-c3cc(N4CCC4)ccn3)cc2cnn1-c1ccccn1` [1-53, 6-(4-(Azetidin-1-yl)pyridin-2-yl)-2-(pyridin-2-yl)phthalazin-1(2H)-one], the IC50 fell in the range of 1000 to 10000 nM.
Regarding `COc1cccc(-c2ccc3c(=O)n(-c4ncc(C)cn4)ncc3c2)c1C` [1-54], the IC50 was less than 100 nM.
In the case of `COc1cnc(-n2ncc3cc(-c4cccc(OC)c4C)ccc3c2=O)nc1` [1-55] it was less than 100 nM; in that of `Cc1cnc(-n2ncc3cc(-c4cccc5c4CCN5C)ccc3c2=O)nc1` [1-56], less than 100 nM; in that of `COc1cnc(-n2ncc3cc(-c4cccc5c4CCN5C)ccc3c2=O)nc1` [1-57], less than 100 nM.
Regarding `COc1cccc(-c2ccc3c(=O)n(-c4ncccc4F)ncc3c2)c1C` [1-58], the IC50 is less than 100 nM.
Next, `COc1cccc(-c2ccc3c(=O)n(C4CCOCC4)ncc3c2)c1C` [1-60]: 100 to 1000 nM.
`CN1CCCc2c(-c3ccc4c(=O)n(-c5ccccn5)ncc4c3)cccc21` [1-61]: the IC50 is less than 100 nM.
Consider `COc1cccc(-c2ccc3c(=O)n(-c4ncc(F)cn4)ncc3c2)c1C` [1-62], for which the IC50 was less than 100 nM.
On to `COc1cccc(-c2ccc3c(=O)n(-c4ncc(N5CCN(C)CC5)cn4)ncc3c2)c1C` [1-63], for which the IC50 was in the range of 100 to 1000 nM.
Consider `COc1cccc(-c2ccc3c(=O)n(-c4ncc(N5CCOCC5)cn4)ncc3c2)c1C` [1-64], for which the IC50 was less than 100 nM.
In the case of `COc1cccc(-c2ccc3c(=O)n(-c4ncc(N5CCC(O)C5)cn4)ncc3c2)c1C` (stereo not shown) [1-65] it was less than 100 nM.
With `COc1cccc(-c2ccc3c(=O)n(CCN4CCOCC4)ncc3c2)c1C` [1-66], the IC50 was 100 to 1000 nM.
For the compound `COc1cccc(-c2ccc3c(=O)n(-c4ccc(SC)cn4)ncc3c2)c1C` [1-67], the IC50 was in the range of 100 to 1000 nM.
Turning to `COc1cccc(-c2ccc3c(=O)n(-c4ccc(S(C)(=O)=O)cn4)ncc3c2)c1C` [1-68], the IC50 fell in the range of 100 to 1000 nM.
For the compound `COc1cccc(-c2ccc3c(=O)n(-c4ncc(OC5CNC5)cn4)ncc3c2)c1C` [1-69], the IC50 was 100 to 1000 nM.
As to `COc1cccc(-c2ccc3c(=O)n(-c4ncc(N5CCCC5)cn4)ncc3c2)c1C` [1-70], the IC50 fell in the range of 100 to 1000 nM.
For `COc1cccc(-c2ccc3c(=O)n(-c4ncc(N5CCCCC5)cn4)ncc3c2)c1C` [1-71], the IC50 is 100 to 1000 nM.
For the compound `COc1cccc(-c2ccc3c(=O)n(-c4ncc(N5CCC(O)CC5)cn4)ncc3c2)c1C` [1-72], the IC50 is less than 100 nM.

By IC50 is commonly meant the midpoint of a concentration-inhibition curve.

The values are drawn from US20240327375A1, “SUBSTITUTED HETEROBICYCLIC DERIVATIVES AS NEGATIVE ALLOSTERIC MODULATORS OF MGLU7 RECEPTOR” (priority 2021, published 2024).
